Assay results taken from the supplement of paper PMC13380429.
± gives the standard deviation of the averaged measurements.

Columns and labels:
Conditions in all cases: 72 h
HepG2 [1] = assay: drug sensitivity score (DSS) for viability; higher = more toxic; extreme values may be limits of the assay
Calu-3 [2] = assay: as above
Caco-2 [3] = assay: as above
U2OS [4] = assay: as above
HepG2 [5] = assay: relative viability EC50 (midpoint between 100% and the lowest measured viability); higher = less toxic
Calu-3 [6] = assay: as above
Caco-2 [7] = assay: as above
U2OS [8] = assay: as above
HepG2 [9] = assay: cell viability relative to DMSO; higher = less toxic
Calu-3 [10] = assay: as above
Caco-2 [11] = assay: as above
U2OS [12] = assay: as above
Vero E6 [13] = assay: drug sensitivity score (DSS) for viability; higher = more toxic; extreme values may be limits of the assay
Vero E6 [14] = assay: cell viability relative to DMSO; higher = less toxic

Row | Compound | drug sensitivity score (HepG2 [1]) | drug sensitivity score (Calu-3 [2]) | drug sensitivity score (Caco-2 [3]) | drug sensitivity score (U2OS [4]) | relative viability EC50 (HepG2 [5]) | relative viability EC50 (Calu-3 [6]) | relative viability EC50 (Caco-2 [7]) | relative viability EC50 (U2OS [8]) | cell viability (HepG2 [9]; 1 nM) | cell viability (HepG2 [9]; 10 nM) | cell viability (HepG2 [9]; 100 nM) | cell viability (HepG2 [9]; 1000 nM) | cell viability (HepG2 [9]; 10000 nM) | cell viability (Calu-3 [10]; 1 nM) | cell viability (Calu-3 [10]; 10 nM) | cell viability (Calu-3 [10]; 100 nM) | cell viability (Calu-3 [10]; 1000 nM) | cell viability (Calu-3 [10]; 10000 nM) | cell viability (Caco-2 [11]; 1 nM) | cell viability (Caco-2 [11]; 10 nM) | cell viability (Caco-2 [11]; 100 nM) | cell viability (Caco-2 [11]; 1000 nM) | cell viability (Caco-2 [11]; 10000 nM) | cell viability (U2OS [12]; 1 nM) | cell viability (U2OS [12]; 10 nM) | cell viability (U2OS [12]; 100 nM) | cell viability (U2OS [12]; 1000 nM) | cell viability (U2OS [12]; 10000 nM) | drug sensitivity score (Vero E6 [13]) | cell viability (Vero E6 [14]; 1 nM) | cell viability (Vero E6 [14]; 10 nM) | cell viability (Vero E6 [14]; 100 nM) | cell viability (Vero E6 [14]; 1000 nM) | cell viability (Vero E6 [14]; 10000 nM)
1 | CCOC(=O)[C@H](Cc1ccc([N+](=O)[O-])cc1)NC(=O)c1ccccc1 | 0 | 0 | 0 | 0 | > 10 µM | > 10 µM | > 10 µM | > 10 µM | 99.4% | 93.2% | 107% | 101% | 95.2% | 92.9% | 103% | 96.8% | 102% | 106% | 104% | 97.9% | 102% | 96.7% | 90.7% | 101% | 98.3% | 98.5% | 101% | 102% |  |  |  |  |  | 
2 | CCc1cc(C(C)=O)c(O)cc1OCCCCCC(C)(C)c1nn[nH]n1 | 0 | 0 | 0 | 0 | > 10 µM | > 10 µM | > 10 µM | > 10 µM | 99.8% | 107% | 105% | 88.4% | 107% | 108% | 103% | 97.1% | 98% | 93.3% | 102% | 92.1% | 99.5% | 107% | 94.5% | 94% | 96.2% | 88.1% | 97.4% | 95.5% |  |  |  |  |  | 
3 | COc1ccc(Nc2ccn(-c3ccccc3)n2)cc1 | 0 |  | 0 | 0 | > 10 µM |  | > 10 µM | > 10 µM | 102% | 97.2% | 97.6% | 114% | 100% |  |  |  |  |  | 102% | 98.5% | 90% | 97.4% | 89.4% | 95% | 100% | 94.2% | 99.5% | 96.2% |  |  |  |  |  | 
4 | Cc1cc(Nc2cc(CN3CCOCC3)c3nc(C)c(Cc4ccc(Cl)cc4F)n3n2)n[nH]1 | 6.9 | 4.1 | 2.3 | 4 | 1.29 µM |  |  | 3.11 µM | 101% | 105% | 97.5% | 75.5% | 32.7% | 107% | 99.7% | 97.1% | 91% | 50.6% | 102% | 98.2% | 105% | 96.7% | 62.8% | 104% | 105% | 104% | 99.4% | 29.6% | 1.9 | 96.4% | 98% | 96.8% | 95.8% | 70.7%
5 | NCCCCN(Cc1nc2ccccc2[nH]1)[C@H]1CCCc2cccnc21 | 0.2 | 0 | 0 | 0 | > 10 µM | > 10 µM | > 10 µM | > 10 µM | 100% | 104% | 97.6% | 105% | 82.8% | 98.9% | 93.1% | 96.2% | 90.4% | 89.8% | 100% | 93.3% | 97.1% | 97.2% | 104% | 106% | 100% | 97.3% | 96.6% | 98.3% |  |  |  |  |  | 
6 | NS(=O)(=O)Nc1ncnc(OCCOc2ncc(Br)cn2)c1-c1ccc(Br)cc1 | 0 | 0 | 0 | 0 | > 10 µM | > 10 µM | > 10 µM | > 10 µM | 102% | 104% | 98.9% | 92.9% | 90.9% | 88.4% | 99.1% | 95.6% | 104% | 94.7% | 106% | 94.3% | 102% | 93.8% | 97% | 97.8% | 94.5% | 96.9% | 102% | 105% |  |  |  |  |  | 
7 | Cc1cc([C@@H](C)Nc2ccccc2C(=O)O)c2nc(N3CCOCC3)cc(=O)n2c1 [AZD6482] | 2 | 1.3 | 3.9 | 0.6 | > 10 µM |  |  | > 10 µM | 103% | 102% | 99.9% | 85.5% | 79.7% | 97.7% | 105% | 94.2% | 100% | 69% | 93.5% | 102% | 90% | 83.6% | 57.5% | 100% | 101% | 96.1% | 99.8% | 80.8% | 4.1 | 108% | 96.5% | 89.3% | 79.8% | 67.6%
8 | NC(=O)Nc1cc(-c2cccc(F)c2)sc1C(=O)N[C@H]1CCCNC1 [AZD7762] | 12.7 | 12 | 6.9 | 17.4 | 0.809 µM | 0.736 µM | 1.61 µM | 0.352 µM | 97.8% | 101% | 103% | 37.8% | 1.3% | 106% | 96.4% | 94.8% | 43.4% | 7% | 96.3% | 91.5% | 102% | 82.6% | 25% | 101% | 95.9% | 97.3% | 6.1% | 0.1% | 4.1 | 92% | 99.1% | 90.7% | 84.6% | 52.4%
9 | O=S(=O)(c1cccc2cnccc12)N1CCNCC1 [C-1] | 0 | 0 | 0 |  | > 10 µM | > 10 µM | > 10 µM |  | 93.2% | 105% | 95% | 110% | 104% | 98.2% | 91.8% | 96.3% | 99.5% | 123% | 96.8% | 94.8% | 105% | 99.4% | 104% |  |  |  |  |  |  |  |  |  |  | 
10 | Clc1ccc(-c2nc3sccn3c2/C=N/OCc2ccc(Cl)c(Cl)c2)cc1 [CITCO] | 0 | 0 | 0 | 0 | > 10 µM | > 10 µM | > 10 µM | > 10 µM | 97% | 104% | 104% | 104% | 97.9% | 92.2% | 88.4% | 93.1% | 93.6% | 92.1% | 107% | 98.5% | 110% | 94% | 96.5% | 96.3% | 98.7% | 99.5% | 97.6% | 94% |  |  |  |  |  | 
11 | C[C@@H](NC(=O)CCc1nc2ccccc2c(=O)[nH]1)c1ccccc1 [ME0328] | 0 | 0 | 0 | 0 |  |  |  |  | 98.65 ± 0.78% | 98.8 ± 4.7% | 100 ± 4.5% | 104 ± 1.3% |  | 100 ± 5.4% | 112 ± 15% | 92 ± 3.1% | 99.7 ± 8.7% | 98.3 ± 3.2% | 97.8 ± 16% | 94 ± 1.2% | 98.8 ± 2% | 103 ± 4.3% | 93.7 ± 9.1% | 102 ± 1.1% | 98 ± 1.3% | 103 ± 1.6% | 95.8 ± 0.14% | 95.8 ± 6.4% | 0 | 93.6 ± 7.1% |  | 93.8 ± 6% | 94.2 ± 6.1% | 94.05 ± 0.071%
12 | O=C(Cc1ccccc1)Nc1nc2ccc(Cl)cc2c2nc(-c3ccco3)nn12 [MRS-1220] | 0 | 0 | 0 | 0 | > 10 µM | > 10 µM | > 10 µM | > 10 µM | 96.5% | 93% | 93.5% | 95.6% | 105% | 104% | 98.2% | 95.3% | 94.1% | 93.5% | 93.7% | 100% | 99.4% | 94.1% | 101% | 98.8% | 101% | 97.2% | 104% | 96.9% |  |  |  |  |  | 
13 | CCOC(=O)C1=C(C)NC(c2ccccc2)=C(C(=O)OCc2ccc([N+](=O)[O-])cc2)[C@@H]1C#Cc1ccccc1 [MRS-1334] | 0.1 | 0 | 0 | 0 | > 10 µM | > 10 µM | > 10 µM | > 10 µM | 114% | 104% | 100% | 92.6% | 89.3% | 99.2% | 97.1% | 96.8% | 95.2% | 98% | 99.1% | 99.7% | 92.8% | 96.8% | 91.9% | 104% | 95.8% | 100% | 101% | 97.9% |  |  |  |  |  | 
14 | COc1cc(N2CCC(O)CC2)ccc1Nc1cc(Nc2ccccc2S(=O)(=O)C(C)C)c2cc[nH]c2n1 [Mps1-IN-1] | 4.1 | 0.1 | 2.3 | 1.5 | 2.57 µM | > 10 µM |  |  | 96.5% | 118% | 95.2% | 95.5% | 37.8% | 101% | 114% | 90.9% | 102% | 85.6% | 102% | 92.2% | 97.4% | 101% | 53.9% | 103% | 101% | 101% | 98.3% | 70.2% | 1.2 | 106% | 103% | 102% | 98.9% | 74%
15 | O=C(Nc1ccccc1)N1CCC(Cc2cnc3ccccc3c2)CC1 [PF-750] | 0 | 0 | 0 | 0 | > 10 µM | > 10 µM | > 10 µM | > 10 µM | 96.6% | 108% | 103% | 98.1% | 93% | 89.9% | 88.1% | 114% | 95.7% | 95.9% | 106% | 99.4% | 94.5% | 102% | 88.3% | 97.2% | 92% | 96.8% | 96.5% | 97.9% |  |  |  |  |  | 
16 | OCc1ccc(-c2ccc(-c3ccc(CO)s3)o2)s1 [RITA] | 6.5 | 0 | 1.9 | 3.6 | 2.51 µM | > 10 µM | > 10 µM | 3.25 µM | 107% | 110% | 88.3% | 92.4% | 4.6% | 102% | 101% | 90.6% | 103% | 106% | 99.2% | 103% | 100% | 89.4% | 77.8% | 95% | 96.3% | 102% | 101% | 32.4% | 1.3 | 101% | 103% | 103% | 102% | 68%
